The test system of one assay is rat aorta. Nature of the assay: Rat aorta protocol: relaxation of phenylephrine-contracted rat aorta rings (endothelium removed). The conditions noted are these: percentage of maximal relaxation produced by nitroprusside (1 X 10⁻⁴ M), at the highest dose tested (100 micromolar), read-out: maximal response. The procedure:
Such vasorelaxation appears to be related to inhibition of the phosphodiesterase (PDE) isozyme related to the cardiac sarcoplasmic reticulum. Thus, relaxation of rat aorta can be used as a screen to eliminate compounds which are not PDE inhibitors prior to testing for actual inotropic activity.
Rings of rat aorta (endothelium removed) were prepared for the measurement of isometric force in isolated tissue organ chambers essentially as previously described by T.J. Rimele et al in the Journal of Pharmacol. Exp. Ther. 245:102-111 (1988). The experimental portion of the protocol began with the addition of methylene blue (1 X 10⁻⁵ M) and propranolol (1 X 10⁻⁶ M) to each organ chamber to inhibit basal cGMP accumulation due to soluble guanylate cyclase and beta-adrenoceptors. Phenylephrine (1 X 10⁻⁷ M) was then added and the rings were allowed to obtain a stable contractile response after which time, the test compound was added in a cumulative fashion. The relaxation induced by each concentration of the test compound was expressed as a percentage of the maximal relaxation produced by nitroprusside (1 X 10⁻⁴ M). […] The IC₅₀ (concentration of test compound which produced a relaxation equivalent to 50% of the maximal relaxation induced by nitroprusside) was determined for each tissue. […]

A further assay has as its target T1, Beta-1 adrenoceptor (Rattus norvegicus, UniProt P18090).
T1 construct: rat brain cortices were used as the source of membrane vesicles; from tissue; host or cells: rat brain cortex membranes
The experiment in a line: Beta adrenoceptor binding assay: [I-125]-Pindolol displacement from rat brain cortical membranes. Conditions: IC₅₀ for displacement of [I-125]-Pindolol, 22°C, two hours, read-out: pIC₅₀ (converted). The procedure:
Because of its receptor density rat brain cortices were used as the source of membrane vesicles to be used in the receptor binding assays. Freshly excised cortexes were homogenized in 20 volumes (w/v) 50 mM TRIS HCl Buffer (pH 7.5), with a glass/Teflon homogenizer following the procedure previously described by T.J. Rimele in J. Pharmacol. Exp. Ther. 239: 1-8, 1986. Beta-1 adrenoceptor binding activity was determined following methods described by M.H. Randall, et al, J. Med. Chem. 20: 1090-1094, 1977, and J. Homberger, et al in Mol. Pharmacol. 20: 453-469, 1981. The incubation mixture consisted of; 26 microliters of 50 mM TRIS/HCl, 10 mM MgCl₂ pH 7.6 buffer, 25 microliters of test drug or 10-6 pindolol to define nonspecific binding, 100 microliters of [I-125]-Pindolol (2200 Ci/mM) at a final concentration of 10-9, and 100 microliters of brain cortical membranes. […] The radioactivity in each filter containing the trapped membrane particles was counted with a gamma counter. […] All specific binding values obtained in the presence of test compounds were expressed as the percentage of specific binding displaced by the individual agents. The resultant values were plotted on a log plot of concentration of test compound vs. percentage of displacement and an IC₅₀ value (drug concentration which produces 50% displacement) determined. […]

In the next assay the test system is guinea-pigs left atria. Nature of the assay: Guinea pig left atria test: force of atrial contraction. The conditions noted are these: Cavia porcellus. The text has this: Male Hartley guinea-pigs (300-400 grams) were sacrificed by cervical dislocation or carbon dioxide asphyxiation. The hearts were immediately removed and placed in oxygenated Krebs-Henseleit buffer (composition (millimolar): Na⁺ 143, K⁺ 5.9, Ca⁺⁺ 1.25, Mg⁺⁺ 1.2, Cl⁻ 128, HCO₃⁻ 25, SO₄⁻⁻ 1.2, H₂PO₄⁻ 1.0, and D-glucose 10). Left atria were dissected away from the remainder of the heart and mounted on holders against platinum punctate electrodes. The mounted atria were placed in tissue baths maintained at 31°C and oxygenated with 95% 0₂-5% CO₂ under 1.0 gram resting tension. The atria were stimulated through the punctate electrode and an external platimum electrode at the threshold voltage plus thirty percent, one Hertz frequency and five to ten milliseconds duration. Contractions were detected with a force displacement transducer and recorded on a physiograph. […]
Direct effects of the test compounds on the force of atrial contraction were observed and recorded after addition of the compounds to the tissue bath. […] Responses to the test compounds and forskolin were expressed as a percentage of the maximal response to forskolin. EC₅₀ values for the test compounds were calculated as the concentration of the compound neceesary to produce an inotropic response half that of the maximal response produced by the test compound. […]

Assay [1] relates to barbiturate-anesthetized dogs. The experiment in a line: Anesthetized dog: inotropic effect (dP/dt) and inhibition of the isoproterenol response. The assay is classed as in vivo. Conditions: for ED50: Canis lupus familiaris, iv, i.v. infusion, cumulative dose. The procedure: Inotropic effects were evaluated in barbiturate-anesthetized dogs by differentiating left intraventricular pressure. This procedure was carried out essentially as described by M.K. Grizzel et al in the FASEB Journal, Vol. 3, page 1039, abstract 4728 (1989). Purpose breed mongrel dogs (14-20 kg) of either sex were anesthetized with a mixture of sodium pentobarbital (15 mg/kg) and sodium barbital (300 mg/kg) i.v., intubated with a cuffed endotracheal tube and ventilated with a respirator (Harvard Apparatus, model 613, South Natick, MA) with room air (22 rpm,10-12 ml/kg/stroke). A 5F pressure transducer (Millar Instruments, Mikkro-tip Houston, TX) was inserted through the right carotid artery into the left ventricle to monitor intraventricular pressure. The left ventricular pressure signal was differentiated (using a 100 Hz low pass differential amplifier, Gould Inc., Cleveland, OH) to obtain its maximal rate of rise (+dP/dt), and used to trigger a biotach amplifier to record heart rate. Cardiac output was determined via thermodilution with a Spectramed computer (Starcom, Oxnard, CA) and a 5F Swan Ganz catheter which was inserted into the right jugular vein and positioned in the pulmonary artery. The femoral artery was cannulated for monitoring arterial blood pressure with a pressure transducer (Micron model MP15D, Simi Valley, CA). A lead II electrocardiogram was measured using subcutaneous electrodes. […] Rectal temperature was monitored and maintained at 37-38°C with a heating pad (Baxter Health Care model K20, McGaw Park, IL). All variables were recorded using a Gould 3800S physiograph.
Isoproterenol ([…]) was injected i.v. into the cephalic vein at 10 min intervals except for when the test drug infusion was begun. […] Inhibition of the isoproterenol responses on contractility (dP/dt), heart rate and diastolic blood pressure were determined at each dose of test compound. The inotropic effect of each compound was determined by comparing the level of dP/dt at the end of each 10 min period to that of the level of dP/dt just prior to the infusion of test compound. […]

SMILES strings stand for the structures. Where two headings read alike, the source gives them in different places.

T1 sequence (P18090 whole entry): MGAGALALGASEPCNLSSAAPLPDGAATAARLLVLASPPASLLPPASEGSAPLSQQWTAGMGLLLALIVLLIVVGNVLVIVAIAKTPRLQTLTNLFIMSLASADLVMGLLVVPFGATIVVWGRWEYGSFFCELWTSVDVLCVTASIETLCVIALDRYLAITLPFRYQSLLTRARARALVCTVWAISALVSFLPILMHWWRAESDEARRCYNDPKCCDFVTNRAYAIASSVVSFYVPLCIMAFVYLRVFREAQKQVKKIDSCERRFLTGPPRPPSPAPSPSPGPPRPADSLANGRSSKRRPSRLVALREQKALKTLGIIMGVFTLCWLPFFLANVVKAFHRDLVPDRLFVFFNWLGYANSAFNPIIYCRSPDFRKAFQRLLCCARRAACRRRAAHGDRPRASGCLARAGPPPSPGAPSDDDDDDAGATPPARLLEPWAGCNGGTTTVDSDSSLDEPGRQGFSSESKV

Regarding `O=C(COc1ccc(C2=NNC(=O)CC2)cc1Cl)NCCNC[C@H](O)COc1ccccc1` [Example 19, 6-{4-[N-[2-[3-phenoxy-2-hydroxypropylamino]ethyl]carbamoylmethoxy]-3-chlorophenyl}-4,5-dihydro-3(2H)-pyridazinone], the Emax at 100 µM with rat aorta is 100%; with guinea-pigs left atria (percentage of the maximal response to forskolin, at 100 micromolar, propranolol and phentolamine (1.0 micromolar) present) it was 83%. In addition, the IC50 on Beta-1 adrenoceptor is 0.0269 µM. In addition, the EC50 in the assay with guinea-pigs left atria (concentration producing an inotropic response half that of the maximal response produced by the test compound, read-out: ED₅₀) was 9 µM. Moreover, the ED50 in assay [1] (50% increase in dP/dt compared to a baseline established prior to drug infusion, read-out: inotropic ED₅₀) stood at 0.114 µmol/kg; in assay [1] (50% inhibition of the dP/dt response to isoproterenol, read-out: ED₅₀ for inhibition of the isoproterenol response) it was 0.469 µmol/kg. For the same molecule, the “inotropic effects with atenolol” value in assay [1] (whether the inotropic effects are blocked by atenolol) is “not blocked by atenolol”.

These data come from EP0412814A2, “Pyridazinones having cardiotonic and beta blocking activity” (GLAXO WELLCOME INC., priority 1989, dated 1991).
